Legend:
[1] = system: U87 cells; experiment: CCK-8 cell proliferation assay, U87; assay type: cell-based; details: Homo sapiens, U-87 MG, 72 h, CCK-8, 72 h; read-out: IC50, U87 proliferation inhibition
Method: The effects on cell proliferation were measured using a CCK-8 assay kit. A total of 3 × 10^3 cells were seeded per well in 96-well plates and incubated for 24, 48, or 72 h after drug administration. After 10 μL of CCK-8 solution was added to each well and incubated at 37 °C for 1–2 h, the absorbance at OD450 was read with an enzyme marker. The data were recorded and analyzed by GraphPad Prism software (version 8.0.2). For the cell growth assay, 2 × 10^3 cells were seeded per well in 96-well plates (n = 5). Ten microlitres of CCK-8 reagent was added at a fixed time every day, and the OD450 was read after 2 h. The statistical data were analyzed, and cell growth curves were plotted after a continuous period of 7 days.

[2] = cited from earlier work
[3] = system: NAD^+ in U87 cells; experiment: Measurement of NAD+ levels in U87 cells; assay type: cell-based, human; details: 10 nmol/L, compared with PF403
Excerpt: NAD^+ is a coenzyme found in all cells and consists of both NAD^+ (oxidized) and NADH (reduced) forms. NAD^+ can be used to transfer electrons during redox reactions and as a substrate used by many enzymes to participate in intracellular reactions. We used an NAD^+/NADH assay kit (Beyotime, S0175, Shanghai, China) based on the WST-8 method to determine the NAD^+/NADH content. Cells in 6-well plates were collected and lysed with NAD^+/NADH extract on ice, and the supernatant was used as the sample to be tested. A control solution with a gradient concentration of NADH was prepared with a 10 mmol/L NADH standard. The supernatant from the sample was first aspirated and used to determine the total amount of NAD^+ and NADH. Subsequently, the sample was heated at 60 °C for 30 min to remove the NAD^+, after which the supernatant was collected to determine the NADH concentration. Ethanol dehydrogenase was added to each well, and the plate was incubated at 37 °C in the dark for 10 min. Then, 10 μL of chromogenic solution was added, and the plate was incubated for 30 min. Afterward, the absorbance at 450 nm was measured, and the content was calculated by comparison with the standard curve. The content of NAD^+ was calculated by subtracting the content of NADH from the total amount.

[4] = system: U87 xenograft; experiment: U87 xenograft model in nude mice; assay type: in vivo, nude mice (BALB/c-nude); details: for inhibitory effect in terms of tumor weight / inhibitory effect based on tumor volume: i.g.; for inhibitory effect in terms of tumor weight: 14th day; for inhibitory effect based on tumor volume: daily for 14 days
Method: (§1) Six-week-old female athymic nude mice (BALB/c-nude) were obtained from GemPharmatech (Beijing, China). U87 cells (3 × 10^6 cells per animal) were injected into the rear right armpit of nude mice to generate xenograft tumors. Seven to ten days after injection, the tumors were visible to the naked eye (approximately 100 mm^3), and the mice were randomized into five groups (12 mice per group). The PF403 treatment groups were administered different doses of PF403 once daily via intragastric gavage (low dose, 3 mg/kg; median dose, 6 mg/kg; high dose, 12 mg/kg). The positive control drug used was temozolomide (50 mg/kg, i.g., Days 1–5), the first line of glioma treatment, while the control group was treated with 0.5% CMC-Na solution as a control. To validate the NAMPT knockdown group, we established the following groups: a control group (vehicle control, i.g., once daily, n = 12), a shNAMPT-2 knockdown group (vehicle control, i.g., once daily, n = 12), and a shNAMPT-2 knockdown group treated with CAT3 (6 mg/kg, i.g., once daily, n = 12). The body weights of the nude mice were recorded every two days, and the tumor weights were recorded on the 14th day after the mice were sacrificed.
(§2) IHC was performed following standard protocols. Briefly, the standard protocol for Ki67 immunohistochemical staining involved tissue preparation, deparaffinization and rehydration, antigen retrieval, blocking, primary and secondary antibody incubations, visualization with DAB, counterstaining, mounting, microscopic examination, and image acquisition. To assess proliferation rates in tissue samples, the area of Ki67 expression was used for comparison in each group.

[5] = system: shNAMPT-2 U87 orthotopic glioma; experiment: Orthotopic glioma model with shNAMPT-2 U87 cells, MRI; assay type: in vivo, nude mice (BALB/c-nude)
Method: For the orthotopic glioma model, six-week-old female athymic nude mice (BALB/c-nude) were obtained from GemPharmatech (Beijing, China). Anesthetize nude mice with tribromoethanol at a concentration of 20 mg/mL and a dosage of 0.2 mL/10 g body weight. U87 cells (shNAMPT-2, 5 × 10^5 cells) suspended in 5 μL PBS buffer were injected intracranially into nude mice using stereotaxic restraint. The location was bregma +1.0 mm, right lateral 2.0 mm, profundity 3.5 mm, and return to 3.0 mm. After 3 days, 6 mg/kg of CAT3 was orally administered once daily for 11 days. Intracranial tumors were viewed using MRI. The body weights of mice were monitored once every 2 or 3 days. The feeding and handling of animals have been approved by the Animal Care & Welfare Committee Institute of Materia Medica, CAMS & PUMC (Approval numbers: 00008485, 00008487, 00008963).
After 11 days of treatment, anatomical images of the intracranial tumor were acquired using an MRI scanner (PharmaScan 70/16 US, Bruker, Switzerland) on the nude mice. The parameters used in the scans to optimize gray/white matter contrast were as follows: a T2_TurboRARE, with TR/TE = 2795/35, 4 averages, 22 × 22 field-of-view, and 0.5 mm slice thickness. The scanning of all brains was completed in 25 sessions. The tumor volume was calculated using the sum of the areas in all images multiplied by the thickness of each slice (0.5 mm).

[6] = system: shNAMPT-2 U87 xenograft; experiment: shNAMPT-2 U87 (NAMPT-knockdown) xenograft model; assay type: in vivo, nude mice (BALB/c-nude)
Method: as §1, §2

[7] = system: U87 orthotopic glioma; design: method as in PMID 27495899; details: 6 mg/kg, 11 days of continuous treatment; cited from earlier work

In the case of `COc1ccc2c3c(c4cc(OC)c(OC)cc4c2c1)CN1CCC[C@H]1C3` [CAT, (+)-Deoxytylophorinine], the IC50 [1] is listed as 23.4 nM and the “blood–brain barrier penetration” value [2] is listed as “effectively cross the blood–brain barrier”.

In the case of `O=C(/C=C/c1cccnc1)NCCCCC1CCN(C(=O)c2ccccc2)CC1` [FK866, (E)-Daporinad], the “inhibitory effect on intracellular NAD^+ content” value [3] is reported as “better inhibitory effect on intracellular NAD^+ content than PF403”.

In the case of “(13aS)-3-pivaloyloxyl-6,7-dimethoxyphenanthro[9,10-b] indolizidine [CAT3]”, the “inhibitory effect in terms of tumor weight” value ([4]; 6 mg/kg) is reported as 55.37%, the “inhibitory effect based on tumor volume” value ([4]; 6 mg/kg) is reported as about 58.41% and the “inhibitory effect in terms of tumor weight” value ([4]; 12 mg/kg) is reported as 63.18%. The “inhibitory effect based on tumor volume” value ([4]; 12 mg/kg) was about 67.59%, the “expression of Ki67 in tumor (IHC)” value ([4]; after treatment, U87 xenograft) was “reduced” and the “body weight of the nude mice” value ([4]; due to gastrointestinal reaction) was “decreased slightly in the first week and then gradually recovered”. For the same molecule, the “body weight of nude mice” value ([5]; early and middle stages of treatment) was “slight decrease in the body weight”, the “NAMPT knockdown tumor volume (MRI)” value ([5]; treatment group, 6 mg/kg orally once daily for 11 days, n = 12) was 24.05 ± 13.99 mm^3 and the “inhibitory effect on cell proliferation by tumor volume or weight” value ([6]; 6 mg/kg, i.g., daily for 14 days) was “no significant inhibitory effect”. For the same molecule, the “expression of Ki67 in tumor (IHC)” value ([6]; effective dose (6 mg/kg), NAMPT-knockdown xenograft) was “not affected”, the body weight ([6]; over 14 days, gastrointestinal side effects) was “slight decrease in body weight” and the “inhibitory effect, orthotopic glioma model” value [7] was about 40%.

Reference: PMC12138128 (Acta Pharmaceutica Sinica. B, 2025)
